Source: patent US5512479A, “Method of degrading volatile organochlorides and remediation thereof” (priority 1993, dated 1996)

Assays:
[1] = test system: toluene monooxygenase (TMO); assay: TCE induced TMO activity with different growth substrates (14C-toluene assay); format: cell-based, Pseudomonas mendocina KR-1; conditions: 40 μM TCE; for induced TMO activity increase (FIG. 4): growth substrate run, 6 hour period; for factor of TMO activity increase after addition of the substrate (FIG. 4): 3 g/L glutamate, 2 g/L glucose, or 20 mM lactate added after 2.75 hours
Experimental: (§1) Radioactivity in the bottles was enumerated by placing the bottles in a liquid scintillation counter. Results were recorded as disintegrations per minute (DPM). […] Non-volatile products were not evaporated from the silica gel during the drying phase, and were enumerated by scintillation counting. Thus, the greater the DPMs, the greater the TMO activity.
(§2) The effect of three growth substrates on TCE induced TMO activity was also established through a series of four runs. Cells were grown overnight as previously described for non-inducing growth: 30° C., 100 RPM, 50 mL cells in 125 mL flask in BSM with either 3 g/L sodium glutamate, 20 mM lactate, or 2 g/L glucose. The cultures were then washed and suspended to an O.D.550 =1.0 in BSM plus 0.3 g/L glutamate, 2.0 mM lactate, and 0.2 g/L glucose, respectively. TCE was then added to a final concentration of 40 μM, vials were sealed, and shaken at 30° C. […] At timed intervals, 10 μL of the air above the reaction mixture was removed from the vials by using a gas-tight syringe, and injected onto a gas chromatograph (Varian 3400; Star Data System) equipped with a 30M VOCOL column (Supelco Inc.: c0.53 mm ID, […] film, helium carrier at 7 mL/min, 100° C. isothermal, injector at 225° C.) and an electron capture detector (GC-ECD; 300° C.) to quantify the TCE remaining in the vial. Relative TCE concentration was enumerated as area counts, greater area counts representing greater amounts of TCE remaining in the vials. Five cell suspensions as described above were supplemented with 1 μM, 10 μM, 20 μM, 40 μM and 80 μM of TCE. A control run not shown in FIG. 3, and performed in the same manner as the other five runs, contained only DMF. Cell suspensions were incubated at 30° C. with shaking, and TMO activity, as described above with respect to Example 1, was determined at timed intervals.

[2] = test system: toluene monooxygenase (TMO); format: cell-based, Pseudomonas mendocina KR-1; conditions: for TMO Activity (DPM): cells grown 48 hr on growth substrate (Table 1); for % Activity: relative to toluene-grown cells (Table 1)
Experimental: as §1
(§3) To determine the ability of alkanes to assist in the induction of TMO activity in P. mendocina KR-1 and to subsequently degrade TCE, the organism was grown in basal salts medium with hexane, octane and pentane as sole carbon and energy sources.
Cells were grown for 48 hr, washed with BSM, then suspended to an OD550 of 1.0 in BSM. Cells were incubated for 1 hr to allow removal of most residual alkane. They were then subjected to TMO and TCE assays.

[3] = test system: toluene monooxygenase (TMO); format: cell-based, Pseudomonas mendocina KR-1; conditions: for induction of TMO, in words: substrate added to glutamate-grown cells
Experimental: as §1
A TMO assay was performed on the cells. Then 5 ml of the culture was added to each of four 50 mL serum vials. […] The vials were incubated at 30° C. and sampled, by using a glass syringe, at 1.5 hr and 2.5 hr after substrate addition.

[4] = test system: toluene monooxygenase (TMO); assay: TMO activity induced by TCE (14C-toluene assay); format: cell-based, Pseudomonas mendocina KR-1
Experimental: Cells were first grown overnight under non-inducing conditions. Specifically, cells were grown by suspending a small amount of cells from agar plate, or broth media, in a 125 mL flask containing 50 mL of basal salts medium (BSM) containing 3 g/L sodium glutamate with or without 0.1 g/L casamino acids (Difco). Cells were placed on a rotary shaker and shaken at 100 rpm and 30° C. for 16-24 hr. The cells were then centrifuged and washed with BSM. They were subsequently suspended in BSM and glutamate (3 g/L) to an optical density at 550 nm (OD550) of 1.0. Ten mL of cell suspension was added to a 50 mL serum vial, and 10 μL TCE (40 mM) dissolved in dimethylformamide (DMF) was added to a final concentration of 40 μM.
Comparison non-induced samples were prepared by adding only dimethylformamide (10 μL) to replicate 10 mL cell suspensions. The comparison samples contained no TCE. All sample vials were sealed with teflon-coated crimp seals and the cell suspensions were shaken at 25° C.
as §1
Another set of experiments containing five runs was performed to determine the preferred concentration of TCE used to induce the TMO genes in P. mendocina KR-1. TCE degradation was measured by suspending cells in BSM to an OD550 of 1.0. 10 mL of cells were added to 50 mL serum vials and 10 μL of TCE in dimethylformamide was added (final TCE concentration: 1-80 μM). Vials were sealed with teflon-lined crimp seals and shaken at 30° C. At timed intervals, 250 μl of sample was removed from each sample by using a syringe. The sample was mixed with 250 μl BSM to generate a final volume of 0.5 mL and OD550 of 0.5. ^14 C-Toluene assays were then performed on the samples as described previously.

[5] = test system: Pseudomonas mendocina KR-1; assay: TCE degradation (TCE bottle assay, gas chromatography); format: cell-based
Experimental: as §2
as §3, with “sources. TMO activity was determined by using the ^14 C-toluene assay and TCE degradation was measured by using a TCE bottle assay, both as described previously.” for “sources.”
Finally, alkane grown cells were analyzed for their ability to degrade TCE by using the TCE bottle assay and cells suspended in BSM to OD550 =2.0. […] Loss of TCE in the control (glucose) sample is thought to be due to induction of TMO by TCE.

Pseudomonas cepacia = conditions: cited from earlier work
Pseudomonas putida = conditions: only upon induction by toluene or phenol; cited from earlier work

For N[C@@H](CCC(=O)[O-])C(=O)[O-].[Na+].[Na+] [Gultamate, sodium glutamate, reference compound], the “induced TMO activity increase (FIG. 4)” value [1] was “up to 3,500 DPM”, the “factor of TMO activity increase after addition of the substrate (FIG. 4)” value (from here on “factor of TMO activity increase”) [1] was “at least 5” and the “TMO Activity (DPM)” value [2] was 123 DPM. The “% Activity” value [2] was 0.7%.
With CCCCCC [Hexanes] the “TMO Activity (DPM)” value [2] was 4889 DPM and the “% Activity” value [2] was 29%.
In the case of CCCCCCCC [Octane], the “TMO Activity (DPM)” value [2] is reported as 3915 DPM and the “% Activity” value [2] is reported as 23%.
For CCCCC [Pentane], the “TMO Activity (DPM)” value [2] was 2079 DPM, the “% Activity” value [2] was 12% and the “TMO Activity (DPM), T = 1.5 hr.” value ([3]; 1.5 hr after substrate addition, 30° C. (Table 2)) was 2480 DPM. For the same compound, the “TMO Activity (DPM), T = 2.5 hr.” value ([3]; 2.5 hr after substrate addition, 30° C. (Table 2)) was 1293 DPM, the “TMO Activity (DPM), T = 0” value ([3]; T = 0, before substrate addition (Table 2)) was 126 DPM and the “TMO Activity (DPM), T = 1.5 hr., killed cells” value ([3]; killed (100 μl 1M HCl) + pentane, 1.5 hr (Table 2)) was 128 DPM. For the same compound, the “TMO Activity (DPM), T = 2.5 hr., killed cells” value ([3]; killed (100 μl 1M HCl) + pentane, 2.5 hr (Table 2)) was 121 DPM, the “TMO Activity (DPM), T = 0, killed cells” value ([3]; killed (100 μl 1M HCl) + pentane, T = 0 (Table 2)) was 126 DPM and the “induction of TMO, in words” value [3] was “induction of TMO by pentane”.
With ClC=C(Cl)Cl [TCE, trichloroethylene] the “TMO activity (FIG. 3)” value ([4]; 1 μM TCE, 4 hour test period) was “very little TMO activity was measured”, the “TMO activity (FIG. 3)” value ([4]; 10 μM or more of TCE, after the first half hour) was “increased dramatically after the first half hour” and the “induced TMO activity over 30 minutes (FIG. 1)” value ([4]; 40 μM TCE, 25° C., 30 minute period) was “increased dramatically over the 30 minute time period”. For the same compound, the “TMO activity (FIG. 2)” value ([4]; 40 μM TCE, first 75 minutes) was “over 3,000 DPM”, the “further increase of TMO activity (FIG. 2)” value ([4]; 40 μM TCE, remaining 4 1/2 to 5 hours of six hour experiment) was “almost two fold” and the “rate of increase of TMO activity (FIG. 1)” value ([4]; 40 μM TCE, ten minute time interval) was “substantially two fold rate”. For the same compound, the “induction of TMO activity (FIG. 3)” value ([4]; 10 and 20 μM TCE) was “best results with respect to induction of TMO activity”, the “induction of TMO activity (FIG. 3)” value ([4]; concentrations higher than 10 and 20 μM TCE) was “quite effective” and the “TMO induction by TCE in glutamate- and glucose-grown cells” value [1] was “rapid induction”. For the same compound, the “percentage of TCE remaining (FIG. 6)” value ([5]; 6 hours, glucose (2 g/L) added after about 3 hours, 40 µM) was “about 10%”, the “loss of TCE in the control (glucose) sample (FIG. 7)” value ([5]; OD550 = 2.0, glucose-grown control) was “Loss of TCE” and the “TCE degradation (FIG. 6)” value ([5]; absent any additional inducing substrates) was “TCE degradation occurs simply by contacting Pseudomonas mendocina cells with TCE”. The “TCE concentrations in response to TMO induction (FIG. 5)” value ([5]; sealed vials, 6 hours) was “decreased in response to TMO induction”, the “TCE degradation by Pseudomonas cepacia G4” value (Pseudomonas cepacia; grown without an inducer) was “unable to degrade TCE” and the “TCE degradation by Pseudomonas cepacia 5223-PR1” value (Pseudomonas cepacia; recombinant strain) was “did display the ability to degrade TCE”. The “TCE degradation by Pseudomonas putida PpF1 and B5” value (Pseudomonas putida) was “some ability to degrade TCE”.
For Cc1ccccc1 [Toluene, reference compound], the “% Activity” value [2] was 100% and the “induction of TMO, in words” value [3] was “only limited activity was observed”.
In the case of CC(O)C(=O)O (stereo not shown) [lactate], the “TMO activity up to 2.75 hours (FIG. 4)” value ([1]; before addition of further substrate) is reported as “little or no TMO activity” and the “factor of TMO activity increase” value [1] is reported as “at least 5”.
With glucose the “induced TMO activity increase (FIG. 4)” value [1] was “under 5,000 DPM”, the “factor of TMO activity increase” value [1] was “at least 5” and the “effect of growth substrate on TCE degradation (FIG. 5)” value ([5]; 40 μM TCE, 6 hours) was “greatest effect on TCE degradation”.
